Experimental data published in US9376462B2, “Process for preparing delta-7,9(11) steroids from Ganoderma lucidum and analogs thereof” (Indiana University Research and Technology Corporation, priority 2010, dated 2016).
Where two headings read alike, the source gives them in different places.

Tests used:
[1] = system: MCF-7 cells; assay: Cell proliferation assay (tetrazolium salt/MTT method), MCF-7; type: cell-based; details: Homo sapiens, read-out: IC50, inhibition of cell proliferation
Description: (§1) Cell culture: The human breast cancer cell lines MCF-7 and MDA-MB-231, obtained from ATCC (Manassas, Va.), were cultivated in Dulbecco's modified Eagle's medium (DMEM) containing penicillin (50 U/ml), streptomycin (50 U/ml), and 10% fetal bovine serum (FBS). Media and supplements were from Invitrogen (Grand Island, N.Y.).
(§2) Cell proliferation assay: Ganodermanontriol, 13, 14, and 15 (isomers) were dissolved in DMSO (Sigma; St. Louis, Mo.) at a concentration of 10 mM and stored at 4° C. Dulbecco's phosphate buffered saline (DPBS) was purchased from Cambrex Bio Science Walkersville, Inc. (Walkersville, Md.). Cell proliferation was determined by the tetrazolium salt method (MTT method), according to the manufacturer's instructions (Promega, Madison, Wis.). Briefly, MCF-7 and MDA-MB-231 cells (2.5×10^3/well) were cultured in a 96-well plate and treated with ganodermanontriol, 13, 14 and 15 (0-100 μg/ml) for 24, 48, and 72 hrs. At the end of the incubation period, the cells were harvested and absorption was determined with an ELISA plate reader at 570 nm. Data points represent mean±SD in triplicate determinations repeated at least twice. IC50 values were determined by using SigmaPlot (Systat Software Inc, San Jose, Calif.).

[2] = system: MDA-MB-231 cells; assay: Cell proliferation assay (tetrazolium salt/MTT method), MDA-MB-231; type: cell-based; details: Homo sapiens, read-out: IC50, inhibition of cell proliferation
Description: as §1, §2

[3] = target: recombinant HIV-1 protease (Human immunodeficiency virus type 1 group M subtype B, UniProt P04585); details: cited from earlier work
[4] = system: mammalian cells; details: potentially through inhibition of lanosterol 14α demethylase; cited from earlier work
[5] = system: classical pathway (CP) of the complement system; details: read-out: IC(50), anticomplement activity; cited from earlier work
[6] = system: xenograft model of colon cancer; details: cited from earlier work
[7] = system: HIV-1; details: MT-4 cells; cited from earlier work
[8] = system: human colon cancer cells; details: in vitro; cited from earlier work
[9] = MDA-MB-231 cells, 72 h, 0-100 μM

Compound | IC50 ([1]; MCF7 cells, 72 h, 0-100 μM) [µM] | IC50 [2, 9] [µM] | inhibitory activity against recombinant HIV-1 protease [3] | further results
C[C@H](CC[C@H](O)[C@@](C)(O)CO)[C@H]1CC[C@@]2(C)C3=CCC4C(C)(C)C(=O)CC[C@]4(C)C3=CC[C@]12C (stereo partly drawn) [compound 14, (10S,13R,14R,17R)-4,4,10,13,14-Pentamethyl-17-((2R,5S,6S)-5,6,7-trihydroxy-6-methylheptan-2-yl)-4,5,6,10,12,13,14,15,16,17-decahydro-1H-cyclopenta[a]phenanthren-3(2H)-one] | 16.3 | 36.7 |  | 
ganodermanodiol |  |  | significant inhibitory activity | 
C/C(=C\CC[C@@H](C)[C@H]1CC[C@@]2(C)C3=CCC4C(C)(C)C(=O)CC[C@]4(C)C3=CC[C@]12C)CO (stereo partly drawn) [ganoderol A, (10S,13R,14R,17R)-17-((R,E)-7-Hydroxy-6-methylhept-5-en-2-yl)-4,4,10,13,14-pentamethyl-4,5,6,10,12,13,14,15,16,17-decahydro-1H-cyclopenta[a]phenanthren-3(2H)-one] |  |  |  | hypocholestemic activity [4]: significant hypocholestemic activity; melting point: 75 to 80 °C
C[C@H](CC[C@@H](O)[C@](C)(O)CO)[C@H]1CC[C@@]2(C)C3=CCC4C(C)(C)C(=O)CC[C@]4(C)C3=CC[C@]12C (stereo partly drawn) [compound 15, (10S,13R,14R,17R)-4,4,10,13,14-Pentamethyl-17-((2R,5R,6R)-5,6,7-trihydroxy-6-methylheptan-2-yl)-4,5,6,10,12,13,14,15,16,17-decahydro-1H-cyclopenta[a]phenanthren-3(2H)-one] | 24.1 | 11.3 |  | 
C[C@H](CC[C@H](O)[C@](C)(O)CO)[C@H]1CC[C@@]2(C)C3=CCC4C(C)(C)C(=O)CC[C@]4(C)C3=CC[C@]12C (stereo partly drawn) [compound 1, (10S,13R,14R,17R)-4,4,10,13,14-Pentamethyl-17-((2R,5S,6R)-5,6,7-trihydroxy-6-methylheptan-2-yl)-4,5,6,10,12,13,14,15,16,17-decahydro-1H-cyclopenta[a]phenanthren-3(2H)-one] |  |  | significant inhibitory activity | IC50 [5]: 17.2 µM; IC50 ([1]; MCF7, 72 h): 5.8 µM; tumor growth [6]: inhibited tumor growth; inhibition of HIV-1-induced cytopathic effect [7]: inhibited; proliferation of human colon cancer cells [8]: suppressed proliferation; IC50 ([2]; MDA-MB-231, 72 h): 9.7 µM
C[C@H](CCC=C(CO)CO)[C@H]1CC[C@@]2(C)C3=CC[C@H]4C(C)(C)C(=O)CC[C@]4(C)C3=CC[C@]12C [ganoderiol F, reference compound] |  |  |  | inhibition of HIV-1-induced cytopathic effect [7]: inhibited
C/C(=C\CC[C@@H](C)[C@H]1CC(=O)[C@@]2(C)C3=C(C(=O)C[C@]12C)[C@@]1(C)CC[C@H](O)C(C)(C)[C@@H]1C[C@@H]3O)C(=O)O [ganoderic acid β] |  |  | significant inhibitory activity | 
C[C@H](CC[C@@H](O)[C@@](C)(O)CO)[C@H]1CC[C@@]2(C)C3=CCC4C(C)(C)C(=O)CC[C@]4(C)C3=CC[C@]12C (stereo partly drawn) [compound 13, (10S,13R,14R,17R)-4,4,10,13,14-Pentamethyl-17-((2R,5R,6S)-5,6,7-trihydroxy-6-methylheptan-2-yl)-4,5,6,10,12,13,14,15,16,17-decahydro-1H-cyclopenta[a]phenanthren-3(2H)-one] | 24.1 | 33.8 |  | 
